# Test results taken from patent publication US20050058600A1, “3,3'-Diindolylmethane antiandrogenic compositions” (priority 2003, published 2005).
# Experiments:
# [1] = target: T1, AR (Homo sapiens, UniProt P10275, T878A); assay: AR cytoplasmic/nuclear distribution by subcellular fractionation and Western blot in LNCaP cells; format: cell-based
# T1 construct: 95 μL of either LNCaP cell extracts or recombinant AR protein; endogenous in cells; host or cells: LNCaP
# T1 sequence (P10275 1-920 T878A): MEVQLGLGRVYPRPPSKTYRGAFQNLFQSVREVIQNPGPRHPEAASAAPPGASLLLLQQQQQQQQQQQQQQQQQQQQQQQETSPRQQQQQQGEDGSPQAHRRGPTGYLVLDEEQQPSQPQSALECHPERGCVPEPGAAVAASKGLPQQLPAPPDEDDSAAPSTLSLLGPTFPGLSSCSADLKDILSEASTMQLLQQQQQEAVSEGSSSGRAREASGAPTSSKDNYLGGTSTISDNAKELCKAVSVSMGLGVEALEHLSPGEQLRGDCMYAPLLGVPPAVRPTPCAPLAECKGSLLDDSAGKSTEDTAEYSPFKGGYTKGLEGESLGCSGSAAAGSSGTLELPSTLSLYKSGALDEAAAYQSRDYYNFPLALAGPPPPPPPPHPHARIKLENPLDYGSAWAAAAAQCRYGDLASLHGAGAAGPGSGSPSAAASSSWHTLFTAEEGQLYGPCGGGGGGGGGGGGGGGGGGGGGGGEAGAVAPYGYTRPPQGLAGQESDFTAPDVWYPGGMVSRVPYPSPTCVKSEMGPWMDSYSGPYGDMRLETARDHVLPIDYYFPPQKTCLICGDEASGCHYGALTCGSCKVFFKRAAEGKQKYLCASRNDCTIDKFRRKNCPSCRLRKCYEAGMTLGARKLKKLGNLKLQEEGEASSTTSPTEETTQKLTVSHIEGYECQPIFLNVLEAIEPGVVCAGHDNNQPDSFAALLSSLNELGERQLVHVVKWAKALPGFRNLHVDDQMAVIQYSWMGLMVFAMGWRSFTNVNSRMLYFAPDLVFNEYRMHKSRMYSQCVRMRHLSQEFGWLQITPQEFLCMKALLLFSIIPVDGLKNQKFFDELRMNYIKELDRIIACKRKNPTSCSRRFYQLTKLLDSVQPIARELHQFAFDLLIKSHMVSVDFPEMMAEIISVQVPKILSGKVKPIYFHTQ
# Procedure: Subcellular Fractionation. Three near confluent (80-90%) cultures of LNCaP cells in 100 mm Petri dishes were used for each treatment. Treatments were added as 1 μL of 1,000× solution in DMSO per ml of medium for the indicated time. After incubation with treatments at 37° C., cytosolic and nuclear proteins were prepared as described (32,33) with modifications. Briefly, cells were lysed in hypotonic buffer (10 mM Hepes, pH 7.5) and harvested in MDH buffer (3 mM MgCl2, 1 mM DTT, 25 mM Hepes, pH 7.5). After homogenization, supernatant was saved for cytosolic proteins and nuclear proteins were extracted from the pellets using MDHK buffer (3 mM MgCl2, 1 mM DTT, 0.1 M KCl, 25 mM Hepes, pH 7.5) followed by HDK buffer (25 mM Hepes, pH 7.5, 1 mM DTT, 0.4 M KCl). Cytosolic and nuclear extracts were subsequently analyzed by Western blot analysis.
# Western Blot Analysis. Following the indicated treatment, Western immunoblot analyses of androgen receptor from LNCaP cells were performed as described previously (20). […] The amount of protein was quantified by Gel Densitometer (Bio-Rad) and normalized with P-actin when used as an internal control.
# [2] = test system: LNCaP cells; assay: LNCaP cell proliferation (cell counting); format: cell-based; conditions: Homo sapiens, 96 h treatment, read-out: maximal inhibition of LNCaP cell proliferation
# Procedure: (§1) DIM was prepared from I3C as described (26-28) and recrystallized in toluene. The human prostate adenocarcinoma cell lines LNCaP-FGC and PC-3 were obtained from the American Type Culture Collection (Rockville, Md.). They were grown as adherent monolayers in 10% FBS-DMEM, supplemented with 4.0 g/L glucose and 3.7 g/L sodium bicarbonate in a humidified incubator at 37° C. and 5% CO2 and passaged at approximately 80% confluency. Cultures used in subsequent experiments were at less than 40 passages. Cells grown in stripped conditions were in 5% DCC-FBS-DMEM base supplemented with 4.0 g/L glucose, 3.7 g/L sodium bicarbonate, and 0.293 g/L L-Glutamine.
# (§2) Cell Growth. Before the beginning of the treatments, cells were depleted of androgen for 4-7 d in medium composed of DMEM base without phenol-red and with 4.0 g/L glucose and 3.7 g/L sodium bicarbonate. During the depletion period, medium was changed every 48 h. Treatments were administered by addition of 1 μL of 1,000× solution in DMSO per mL of medium. Once the treatment period started, medium was changed daily to counter possible loss of readily metabolized compounds.
# (§3) Cell Counting. Cells were harvested by trypsinization and resuspended in culture medium. Aliquots were diluted 50-fold in Isoton II (Coulter Corp., Miami, Fla.) and 200 μL duplicates were counted in a model Z1 Coulter particle counter and averaged.
# [3] = test system: AR; assay: pPSA-Luc / MMTV-Luc reporter assay in PC-3 cells with or without AR expression vector; format: cell-based, human
# Procedure: Plasmid Reporters and Expression Vectors. The ARE responsive luciferase reporter plasmid, pPSA-630 luciferase (pPSA-Luc) was prepared as previously described (29). pPSA-Luc contains the PSA promoter region (−630 to 12) with three AREs, all of which are critical to the activity of the pPSA-Luc promoter. The MMTV-Luc contains one consensus ARE and the expression vector, pCMV-hAR constitutively expresses a fully functional human androgen receptor. The pCMV-GFP-rAR was prepared as previously described (30).
# Transient Transfections with Reporters and Luciferase Assay. LNCaP and PC-3 cells were transfected, with some modifications, as previously described (20). For AR transactivation, cells were transfected with 0.1 μg of MMTV-Luc or pPSA-Luc per plate. Co-transfection experiments with pCMV-hAR or pCMV-GFP-rAR, 0.1 μg per plate was also used. For experiments involving GFP fluorescence imaging, treatments were not added until 30 h after transfection.
# [4] = test system: PC-3 cells; assay: PC-3 cell growth (cell counting); format: cell-based, human; conditions: 96 h treatment; same concentrations (up to 50 μM)
# Procedure: as §1, §2, §3
smiles,measurement,setting,value
"c1ccc2c(Cc3c[nH]c4ccccc34)c[nH]c2c1 [DIM, 3,3′-diindolylmethane]","effect on nuclear translocation of the AR, compound alone",[1]; absence of DHT,had no effect
same,block of DHT-induced AR translocation,[1]; co-treatment with 1 nM DHT,up to 75%
same,inhibition at 50 µM,[2],70%
same,effect on pPSA-Luc reporter,[3]; PC-3 without co-transfection of an AR expression vector,has no effect
same,transactivation of reporter genes by compound alone,"[3]; either cell line, with or without co-transfection of wild-type AR",did not induce transactivation
same,effects on the growth of PC-3 cells,[4],no observable effects
